Series [1] can be described thus: Potency index, ratio of arbutin IC50 to compound IC50 for inhibition of theophylline-stimulated melanogenesis in mouse B16-4A5 cells. It counts as functional.
The nature of series [2]: Cytotoxicity against mouse B16-4A5 cells assessed as cell viability at 3 uM after 72 hrs by MTT assay in presence of theophylline relative to control. It counts as cell-based. The following applies: read-out: Activity. In general terms: Formazan colour is commonly taken as a measure of viable cells.
A short description of series [3]: Cytotoxicity against mouse B16-4A5 cells assessed as cell viability at 10 uM after 72 hrs by MTT assay in presence of theophylline relative to control. As to conditions: read-out: Activity. It counts as cell-based.
Series [4] in a line: Inhibition of theophylline-stimulated melanogenesis in mouse B16-4A5 cells after 72 hrs by microplate reader analysis. It counts as functional, cell-based.

Regarding `COc1ccc2c(c1)C(C)(C)c1nccc3cc4c(c-2c13)OCO4`, in series [1], the “Ratio IC50” value was determined as 40. Besides, in series [2], the viability at 72 h, 3 µM turned out to be 95.7%. Moreover, in series [3], the viability at 72 h, 10 µM is 86.7%. Also, it took 4.7 µM to reach half-maximal inhibition in series [4] (IC50).
